Measurements: US10889625B2, “Peptide-based methods for treating neurological injury” (THE REGENTS OF THE UNIVERSITY OF COLORADO, a body corporate, priority 2016, dated 2021)
Residues, ends and D or L forms follow the SMILES beside them.

Legend:
[1] = target: T1, TRPM2 channels (Mus musculus, UniProt Q91YD4); assay: 60 min tMCAO, total hemisphere infarct volume (TTC) in WT mice; format: in vivo; details: given 3 hours after MCAO
T1 construct: from tissue; host or cells: mouse brain in vivo; acute hippocampal/brain slices from mice
T1 sequence (Q91YD4 whole entry): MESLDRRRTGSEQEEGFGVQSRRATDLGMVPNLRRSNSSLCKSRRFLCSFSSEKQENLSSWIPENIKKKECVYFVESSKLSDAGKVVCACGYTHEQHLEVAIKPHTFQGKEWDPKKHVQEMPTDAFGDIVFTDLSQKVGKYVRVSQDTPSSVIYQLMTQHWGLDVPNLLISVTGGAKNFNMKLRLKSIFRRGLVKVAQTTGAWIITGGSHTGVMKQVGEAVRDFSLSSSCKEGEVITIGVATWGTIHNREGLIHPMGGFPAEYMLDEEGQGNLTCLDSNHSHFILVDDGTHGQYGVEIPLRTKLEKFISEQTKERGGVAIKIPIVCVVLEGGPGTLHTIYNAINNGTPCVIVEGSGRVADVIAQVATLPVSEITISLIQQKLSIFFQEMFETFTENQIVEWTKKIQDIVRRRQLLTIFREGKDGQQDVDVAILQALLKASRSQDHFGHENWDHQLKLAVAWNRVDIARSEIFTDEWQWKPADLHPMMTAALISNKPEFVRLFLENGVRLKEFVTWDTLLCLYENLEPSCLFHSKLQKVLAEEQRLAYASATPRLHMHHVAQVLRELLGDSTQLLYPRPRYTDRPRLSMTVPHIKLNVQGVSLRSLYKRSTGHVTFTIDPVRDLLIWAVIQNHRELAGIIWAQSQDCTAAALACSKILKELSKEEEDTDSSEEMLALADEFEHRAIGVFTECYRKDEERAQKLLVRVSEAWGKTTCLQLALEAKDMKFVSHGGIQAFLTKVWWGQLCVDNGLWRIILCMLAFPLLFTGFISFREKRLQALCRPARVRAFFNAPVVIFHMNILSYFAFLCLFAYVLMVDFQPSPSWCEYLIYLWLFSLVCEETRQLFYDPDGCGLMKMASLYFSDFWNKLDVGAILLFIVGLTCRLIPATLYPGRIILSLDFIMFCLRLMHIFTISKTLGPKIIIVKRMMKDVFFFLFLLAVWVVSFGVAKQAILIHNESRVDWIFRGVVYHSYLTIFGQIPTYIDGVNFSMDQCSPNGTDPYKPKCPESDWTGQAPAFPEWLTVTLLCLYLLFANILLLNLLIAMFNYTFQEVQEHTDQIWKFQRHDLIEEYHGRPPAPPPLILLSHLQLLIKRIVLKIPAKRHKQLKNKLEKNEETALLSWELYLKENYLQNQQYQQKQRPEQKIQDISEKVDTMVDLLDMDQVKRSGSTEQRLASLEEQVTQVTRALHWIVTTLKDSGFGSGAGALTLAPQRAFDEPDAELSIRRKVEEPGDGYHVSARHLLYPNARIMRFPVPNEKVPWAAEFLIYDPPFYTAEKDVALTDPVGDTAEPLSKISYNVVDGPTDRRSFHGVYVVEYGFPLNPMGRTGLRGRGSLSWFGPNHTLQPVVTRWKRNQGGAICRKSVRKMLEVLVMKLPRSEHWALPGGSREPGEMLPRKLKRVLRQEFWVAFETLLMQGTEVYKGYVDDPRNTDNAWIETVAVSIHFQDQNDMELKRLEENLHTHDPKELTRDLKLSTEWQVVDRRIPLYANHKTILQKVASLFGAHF

[2] = target: TRPM2 ion channels (Mus musculus, UniProt Q91YD4); details: males and females, background statement; cited from earlier work
TRPM2 ion channels, sequence (Q91YD4 whole entry): as above

[3] = mice, MCAO

SMILES | infarct volume [1] [%] | infarct size following stroke [2] | effect on physiological variables such as blood pressure [3]
Clc1ccccc1C(c1ccccc1)(c1ccccc1)n1ccnc1 [CTZ, clotrimazole] | 46.8±7.4 | reduces infarct size in males, but not females | –
CSCC[C@H](NC(=O)[C@H](CCC(=O)O)NC(=O)CNC(=O)[C@@H]1CCCN1C(=O)[C@H](CCC(=O)O)NC(=O)[C@H](CCCNC(=N)N)NC(=O)[C@H](CO)NC(=O)CNC(=O)[C@H](CCCNC(=N)N)NC(=O)[C@H](CCCNC(=N)N)NC(=O)[C@H](CCCNC(=N)N)NC(=O)[C@H](CCC(N)=O)NC(=O)[C@H](CCCNC(=N)N)NC(=O)[C@H](CCCNC(=N)N)NC(=O)[C@H](CCCCN)NC(=O)[C@H](CCCCN)NC(=O)[C@H](CCCNC(=N)N)NC(=O)CNC(=O)[C@@H](N)Cc1ccc(O)cc1)C(=O)N[C@@H](CC(C)C)C(=O)N1CCC[C@H]1C(=O)N[C@@H](CCCNC(=N)N)C(=O)N[C@@H](CCCCN)C(=O)N[C@@H](CC(C)C)C(=O)N[C@@H](CCCCN)C(=O)N[C@@H](CCCNC(=N)N)C(=O)N[C@H](C(=O)N[C@@H](CC(C)C)C(=O)N[C@@H](CCCNC(=N)N)C(=O)N[C@@H](CCC(N)=O)C(=O)N[C@@H](CCC(=O)O)C(=O)N[C@@H](Cc1ccccc1)C(=O)N[C@@H](Cc1c[nH]c2ccccc12)C(=O)N[C@H](C(=O)O)C(C)C)C(C)C [tat-M2NX] (H-YGRKKRRQRRRGSREPGEMLPRKLKRVLRQEFWV-OH; N-terminus and C-terminus assumed) | – | – | no effect
